The values below come from US20070092551A1, “Therapeutic agent” (TAKARA BIO INC., priority 2003, published 2007).

A value given as a limit tells only on which side of the number the result lay.

Assay [1] concerns mature adipocytes (3T3-L1 cells). Kind of assay: Enhancing action on glucose uptake (2-deoxyglucose) into mature adipocytes. It is filed as cell-based. The settings on record: Mus musculus, 3T3-L1, X=(S−N)/(P−N) of 2-deoxyglucose uptake, P=insulin 1 μg/mL, read-out: Enhancing Action on Glucose Uptake.
The test system of assay [2] is 3T3-L1 cells. Briefly: Induction of adipocyte differentiation (amount of triglyceride biosynthesis). It counts as cell-based. The conditions noted are these: Mus musculus, 3T3-L1, X=(S−N)/(P−N) of amount of triglyceride, P=insulin positive control, read-out: Action for Induction of Differentiation. In a few lines: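 Differentiation scored as X=(S−N)/(P−N), ranked +++, ++, +, +/−, where S, N and P are triglyceride with compound, DMSO and insulin; triglyceride was extracted with hexane:isopropanol (3:2) and assayed twice. Compound was added after 7 days' growth, first with 0.25 μM dexamethasone (45 h), then for 7 days.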

With `CC(C)=CCC/C(C)=C/Cc1c(O)ccc(C(=O)/C=C/c2ccc(Cl)cc2)c1O` [Compound (C074), 4-chloro-2′,4′-dihydroxy-3′-geranylchalcone], in assay [1], the activation at 30 µM is 30 to 60%. Moreover, in assay [2], the activation at 3 µM was in the range of 15 to 30% and the activation at 10 µM was 30 to 60%.
Take `CC(C)=CCc1c(O)ccc(C(=O)/C=C/c2ccc(Cl)cc2)c1O` [Compound (C075), 4-chloro-2′,4′-dihydroxy-3′-prenylchalcone]: in assay [1], the activation at 10 µM was in the range of 15 to 30% and the activation at 30 µM was 30 to 60%. Also, in assay [2], the activation at 3 µM fell in the range of 15 to 30% and the activation at 10 µM was 30 to 60%.
`COc1ccc(C(=O)/C=C/c2cccc([N+](=O)[O-])c2)c(O)c1CC=C(C)C` [Compound (C076), 3-nitro-2′-hydroxy-3′-prenyl-4′-methoxychalcone]: in assay [1], the activation at 3 µM is 15 to 30%, the activation at 10 µM fell in the range of 30 to 60% and the activation at 30 µM is more than 100%. Also, in assay [2], the activation at 1 µM was 60 to 100%, the activation at 3 µM is more than 100% and the activation at 10 µM is more than 100%.
`COc1ccc(C(=O)/C=C/c2ccc(O)cc2)c(OCc2ccccc2)c1CC=C(C)C` [Compound (C077), 4-hydroxy-2′-benzyloxy-3′-prenyl-4′-methoxychalcone]: in assay [1], the activation at 10 µM is 30 to 60% and the activation at 30 µM lay in the range of 30 to 60%. For the same compound, the activation at 3 µM in assay [2] lay within 30 to 60%.
For the compound `COc1ccc(C(=O)/C=C/c2ccc(OC(C)=O)cc2)c(O)c1CC=C(C)C` [Compound (C078), 4-acetoxy-2′-hydroxy-3′-prenyl-4′-methoxychalcone], the activation at 10 µM was in the range of 15 to 30% in assay [1] and 30 to 60% in assay [2]. For the same compound, the activation at 30 µM in assay [1] and in assay [2] (30 μM) was more than 100% each time.
In the case of `COc1ccc(C(=O)/C=C/c2ccc(Cl)cc2)c(OC(C)=O)c1CC=C(C)C` [Compound (C079), 4-chloro-2′-acetoxy-3′-prenyl-4′-methoxychalcone], in assay [1], the activation at 3 µM was more than 100%, the activation at 10 µM is 60 to 100% and the activation at 30 µM is more than 100%. In addition, in assay [2], the activation at 3 µM was 60 to 100% and the activation at 10 µM was more than 100%.
Regarding `COc1ccc(C(=O)/C=C/c2ccc(Cl)cc2)c(OC(C)=O)c1C/C=C(\C)CCC=C(C)C` [Compound (C080), 4-chloro-2′-acetoxy-3′-geranyl-4′-methoxychalcone], in assay [1], the activation at 10 µM lay in the range of 30 to 60% and the activation at 30 µM fell in the range of 60 to 100%. Also, in assay [2], the activation at 1 µM is 60 to 100%, the activation at 3 µM is more than 100% and the activation at 10 µM is more than 100%.
Take `COc1ccc(C(=O)/C=C/c2ccco2)c(O)c1CC=C(C)C` [Compound (FUR-1), 3-(2-furyl)-1-(2-hydroxy-3-prenyl-4-methoxyphenyl)-2-propen-1-one]: in assay [1], the activation at 10 µM lay in the range of 15 to 30% and the activation at 30 µM lay in the range of 60 to 100%. Also, in assay [2], the activation at 1 µM lay within 15 to 30%, the activation at 3 µM lay within 30 to 60% and the activation at 10 µM is more than 100%.
As to `CC(C)=CCc1c(O)ccc(C(=O)/C=C/c2ccc(O)cc2)c1O` [Isobavachalcone], in assay [1], the activation at 3 µM lay within 15 to 30%, the activation at 10 µM fell in the range of 60 to 100% and the activation at 30 µM is more than 100%. Besides, in assay [2], the activation at 3 µM lay within 30 to 60% and the activation at 10 µM lay within 60 to 100%.
As to `CC(C)=CCCC(C)(O)C1Cc2c(ccc(C(=O)/C=C/c3ccc(O)cc3)c2O)O1` (centres unmarked) [TB3, 1-[2,3-dihydro-4-hydroxy-2-(1-hydroxy-1,5-dimethyl-4-hexenyl)-benzofuran-5-yl]-3-(4-hydroxyphenyl)-2-propen-1-one], in assay [1], the activation at 3 µM fell in the range of 30 to 60% and the activation at 10 µM is more than 100%. For the same compound, in assay [2], the activation at 3 µM is more than 100% and the activation at 10 µM is more than 100%.
